In patent US7148352B2, “Method of inhibiting neurotrophin-receptor binding” (Queen's University at Kingston, priority 1999, dated 2006):
Values joined by “and” are separate entries in the source; they are usually repeats but may differ in a detail not shown here. Identical values can stand only once.

Assays:
[1] = tested on: p75^NTR (PC12^nnr5 cells, expressing p75^NTR only); assay: 125I-NGF receptor binding to PC12^nnr5 cells in the presence of competitor; set-up: species or system rat; details: compound 50 μM, 125I-NGF 1 nM, 2 h at 4° C.; for nnr5 % of Max, Avg: average of three values; for nnr5 % of Max (individual determinations): receptor binding as percentage of binding in absence of competitor
Protocol: (§1) The radio-iodination and receptor binding of NGF (Sutter et al., 1979) was performed with modifications (Ross et al., 1997) as follows: Evaluation of the ability of NCP compounds to inhibit TrkA and p75^NTR binding was determined by the binding of ^125I-NGF to PC12 cells (rat pheochromocytoma cells expressing TrkA and p75^NTR; obtained from ATCC) and PC12^nnr5 (rat pheochromocytoma cells expressing p75^NTR only; obtained from Dr. L. Greene, Columbia University, NY). The p75^NTR is in a low affinity state and a high affinity state, respectively, in these cell types (Ross et al., 1998). PC12 and PC12^nnr5 cells were grown in RPMI (Sigma) with 10% heat inactivated donor horse serum and 5% fetal calf serum. Cells were harvested by replacing the medium with calcium, magnesium-free balanced salt solution (Gey's solution) and incubating at 37° C. for 15 minutes. Cells were pelleted by centrifugation and suspended in HKR buffer (10 mM Hepes [pH 7.35] containing 125 mM NaCl, 4.8 mM KCl, 1.3 mM CaCl2, 1.2 mM MgSO4, 1.2 mM KH2PO4, 1 g/L glucose and 1 g/L BSA) at a cell concentration of 2×10^6/mL and kept at 4° C. Triplicate tubes were set up for total binding, non-specific binding and binding in the presence of candidate competitor molecule (i.e., a tube for each data point). Each tube contained ^125I-NGF (at 1 nM), 400,000 cells (for a final cell concentration of 10^6/mL) and NGF (50 nM, to define non-specific binding), as required. The tubes were incubated for 2 h at 4° C. and specific binding evaluated by measuring specifically bound DPM (Ross et al., 1997). Data were analysed and the results expressed as receptor binding observed in the presence of competitor (e.g. NCP compounds) as a percentage of receptor binding in the absence of a competitor.

[2] = target: T1, TrkA and p75^NTR (PC12 cells) (Mus musculus, UniProt P01139); assay: 125I-NGF receptor binding to PC12 cells in the presence of competitor; set-up: species or system rat; details: compound 50 μM; 125I-NGF 1 nM; 2 h at 4° C.; average of three values
T1 construct: PC12 cells (rat pheochromocytoma cells expressing TrkA and p75^NTR; obtained from ATCC); host or cells: PC12 rat pheochromocytoma cells (intact, in suspension)
T1 sequence (P01139 122-241): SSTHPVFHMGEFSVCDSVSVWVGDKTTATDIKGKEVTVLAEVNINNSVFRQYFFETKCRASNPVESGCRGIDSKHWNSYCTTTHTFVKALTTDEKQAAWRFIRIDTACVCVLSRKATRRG
Protocol: as §1

[3] = tested on: T2, TrkA and p75^NTR (PC12 cells); assay: as above; set-up: species or system rat; details: compound 50 μM; 125I-NGF 1 nM; 2 h at 4° C.; receptor binding as percentage of binding in absence of competitor
T2 construct: PC12 cells (rat pheochromocytoma cells expressing TrkA and p75^NTR; obtained from ATCC); host or cells: PC12 rat pheochromocytoma cells (intact, in suspension)
T2 sequence (P01139 122-241): as above
Protocol: as §1

Row | Structure (SMILES) | melting point [°C] | nnr5 % of Max, Avg [1] | nnr5 % of Max (individual determinations) [1] | PC12 % of Max, Avg [2] | PC12 % of Max (individual determinations) [3]
1 | O=C(O)c1cccc(N2C(=O)c3ccc([N+](=O)[O-])cc3C2=O)c1 [Compound 146, 4-nitro-N-(m-carboxyphenyl)phthalimide] | 306 to 308 | = 44 % of Max | 48 % of Max and 43 % of Max and 42 % of Max | = 58 % of Max | 52 % of Max (2×) and 71 % of Max
2 | O=C(O)c1ccc(N2C(=O)c3cccc([N+](=O)[O-])c3C2=O)cc1 [Compound 125, 3-nitro-N-(p-carboxyphenyl)phthalimide] | – | = 49 % of Max | 47 % of Max (2×) and 54 % of Max | = 90 % of Max | 83 % of Max and 87 % of Max and 99 % of Max
3 | O=C(O)CCCCN1C(=O)c2ccc([N+](=O)[O-])cc2C1=O [Compound 143, 4-nitro-N-(4-carboxybutyl)phthalimide] | – | = 75 % of Max | 76 % of Max and 79 % of Max and 71 % of Max | = 78 % of Max | 65 % of Max and 97 % of Max and 72 % of Max
4 | O=C(O)CCCCN1C(=O)c2ccc(C(=O)O)cc2C1=O [Compound 103, 4-carboxy-N-(4-carboxybutyl)phthalimide] | – | = 47 % of Max | 32 % of Max and 69 % of Max and 41 % of Max | = 78 % of Max | 69 % of Max and 65 % of Max and 100 % of Max
5 | O=C(O)c1ccc(N2C(=O)c3ccc([N+](=O)[O-])cc3C2=O)cc1 [Compound 145, 4-nitro-N-(p-carboxyphenyl)phthalimide] | – | = 78 % of Max | 76 % of Max and 86 % of Max and 71 % of Max | = 70 % of Max | 60 % of Max and 77 % of Max and 73 % of Max
6 | O=C(O)c1ccc(CN2C(=O)c3cccc4cc([N+](=O)[O-])cc(c34)C2=O)cc1 [Compound 208, 3-nitro-N-(p-carboxyphenylmethyl)-1,8-naphthalimide] | – | = 83 % of Max | 103 % of Max and 87 % of Max and 58 % of Max | = 49 % of Max | 56 % of Max and 45 % of Max and 47 % of Max
7 | O=C(O)CN1C(=O)c2ccc(C(=O)O)cc2C1=O [Compound 100, 4-carboxy-N-(1-carboxymethyl)phthalimide] | – | = 100 % of Max | 108 % of Max and 111 % of Max and 80 % of Max | = 116 % of Max | 102 % of Max and 108 % of Max and 137 % of Max
8 | O=C(O)CCCN1C(=O)c2ccc(C(=O)O)cc2C1=O [Compound 102, 4-carboxy-N-(3-carboxypropyl)phthalimide] | – | = 55 % of Max | 55 % of Max and 50 % of Max and 61 % of Max | = 91 % of Max | 79 % of Max and 80 % of Max and 113 % of Max
9 | O=C(O)CCN1C(=O)c2cccc([N+](=O)[O-])c2C1=O [Compound 121, 3-nitro-N-(2-carboxyethyl)phthalimide] | – | = 165 % of Max | 204 % of Max and 188 % of Max and 103 % of Max | = 103 % of Max | 121 % of Max and 92 % of Max and 103 % of Max
10 | O=C(O)CCCN1C(=O)c2cccc([N+](=O)[O-])c2C1=O [Compound 122, 3-nitro-N-(3-carboxypropyl)phthalimide] | – | = 163 % of Max | 232 % of Max and 152 % of Max and 104 % of Max | = 97 % of Max | 106 % of Max and 88 % of Max and 98 % of Max
11 | O=C(O)CCCCCN1C(=O)c2ccc(C(=O)O)cc2C1=O [Compound 104, 4-carboxy-N-(5-carboxypentyl)phthalimide] | – | = 37 % of Max | 30 % of Max and 65 % of Max and 17 % of Max | = 56 % of Max | 51 % of Max and 50 % of Max and 66 % of Max
12 | O=C(O)CCCCCN1C(=O)c2ccc([N+](=O)[O-])cc2C1=O [Compound 144, 4-nitro-N-(5-carboxypentyl)phthalimide] | – | = 73 % of Max | 74 % of Max (2×) and 70 % of Max | = 78 % of Max | 68 % of Max and 89 % of Max and 77 % of Max
